Measurements: ChEMBL document CHEMBL1201862, “PubChem BioAssay data set” (2004)
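Method: 48-hour compound exposure of cells in 96-well plates, five concentrations, linear interpolation of endpoints. Abbreviation: GI50, concentration required for 50% inhibition of growth.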 The source made the active and inactive calls. No stated cut-off is given here; in the data, active = GI50 up to about 1.1 µM and inactive = higher.

Legend:
Test in all cases: inhibition of tumour cell growth, NCI panel, 48 h
SK-MEL-2 = tested on: SK-MEL-2
KM12 = tested on: KM12
UACC-62 = tested on: UACC-62
M14 = tested on: M14
SK-MEL-28 = tested on: SK-MEL-28
HCC 2998 = tested on: HCC 2998
RPMI-8226 = tested on: RPMI-8226
HCT-15 = tested on: HCT-15
OVCAR-3 = tested on: OVCAR-3
LOX IMVI = tested on: LOX IMVI
TK-10 = tested on: TK-10
SF-295 = tested on: SF-295
A498 = tested on: A498
MOLT-4 = tested on: MOLT-4
OVCAR-4 = tested on: OVCAR-4
NCI-H522 = tested on: NCI-H522
HCT-116 = tested on: HCT-116

SMILES	GI50 (SK-MEL-2)	GI50 (KM12)	GI50 (UACC-62)	GI50 (M14)	GI50 (SK-MEL-28)	GI50 (HCC 2998)	GI50 (RPMI-8226)	GI50 (HCT-15)	GI50 (OVCAR-3)	GI50 (LOX IMVI)	GI50 (TK-10)	GI50 (SF-295)	GI50 (A498)	GI50 (MOLT-4)	GI50 (OVCAR-4)	GI50 (NCI-H522)	GI50 (HCT-116)
CC1CCP(=O)(c2ccccc2)CC1 (stereo unspecified)	> 100 µM (inactive)	> 100 µM (inactive)	> 100 µM (inactive)	> 100 µM (inactive)	> 100 µM (inactive)	> 100 µM (inactive)	> 100 µM (inactive)	> 100 µM	> 100 µM (inactive)	> 100 µM (inactive)	> 100 µM (inactive)	> 100 µM (inactive)	> 10 µM (inactive)	> 100 µM (inactive)	> 100 µM (inactive)		
CN(C)CC1CCCC(CN(C)C)C1=NOC(=O)c1ccccc1 (stereo unspecified)	> 100 µM (inactive)	> 100 µM (inactive)	> 100 µM (inactive)	> 100 µM (inactive)	> 100 µM (inactive)	> 100 µM (inactive)	> 100 µM (inactive)	> 100 µM	> 100 µM (inactive)	> 100 µM (inactive)	> 100 µM (inactive)	> 100 µM (inactive)	> 100 µM (inactive)	> 100 µM (inactive)		> 100 µM (inactive)	> 100 µM (inactive)
O=C1C=CC=CC2CC=C[C@@H](O)C12 (stereo partly specified)	22.1 µM (inactive)	10.4 µM (inactive)	17.8 µM (inactive)	18.7 µM (inactive)			3.41 µM (inactive)	17.3 µM	> 10 µM (inactive)	15.6 µM (inactive)	32.4 µM (inactive)	20.7 µM (inactive)	15.9 µM (inactive)	20.9 µM (inactive)	31 µM (inactive)	13.7 µM (inactive)	13.2 µM (inactive)
O=C(O)c1ccccc1NS(=O)(=O)c1ccc([N+](=O)[O-])cc1	> 100 µM (inactive)	> 100 µM (inactive)	> 100 µM (inactive)	> 100 µM (inactive)	> 100 µM (inactive)	> 100 µM (inactive)	> 100 µM (inactive)	> 100 µM	> 100 µM (inactive)	> 100 µM (inactive)	> 100 µM (inactive)	> 100 µM (inactive)		> 100 µM (inactive)	> 100 µM (inactive)	> 100 µM (inactive)	> 100 µM (inactive)
COC(=O)NC(=O)c1cn(CCCOC(=O)CCCCCCCCC(=O)OCCCn2cc(C(=O)NC(=O)OC)c(=O)[nH]c2=O)c(=O)[nH]c1=O	> 100 µM (inactive)	> 100 µM (inactive)	> 100 µM (inactive)	> 100 µM (inactive)	> 100 µM (inactive)	> 100 µM (inactive)	> 100 µM (inactive)	> 100 µM	> 100 µM (inactive)	> 100 µM (inactive)	36.8 µM (inactive)	47.3 µM (inactive)	> 100 µM (inactive)	> 100 µM (inactive)	> 100 µM (inactive)		> 100 µM (inactive)
CCN(CC)c1ccc(/N=C2/C=CC(=O)c3ncccc32)c(C)c1	15.1 µM (inactive)	13.8 µM (inactive)	5.06 µM (inactive)	3.02 µM (inactive)	11.8 µM (inactive)	11.7 µM (inactive)	2.93 µM (inactive)	3.08 µM	3.33 µM (inactive)	1.91 µM (inactive)	16.3 µM (inactive)	10.7 µM (inactive)		2 µM (inactive)	2.11 µM (inactive)		2.47 µM (inactive)
CC(=O)NNc1nc(C)c(C(=O)/C=C/c2ccc(Cl)cc2)s1	> 100 µM (inactive)	> 100 µM (inactive)	> 100 µM (inactive)		> 100 µM (inactive)	> 100 µM (inactive)	> 100 µM (inactive)		> 100 µM (inactive)	> 100 µM (inactive)	> 100 µM (inactive)	> 100 µM (inactive)	> 100 µM (inactive)	> 100 µM (inactive)		> 100 µM (inactive)	
CC(C(=O)c1ccccc1)C1(O)C(=O)Nc2ccc(Cl)cc21 (stereo unspecified)	> 100 µM (inactive)	> 100 µM (inactive)	42.2 µM (inactive)	> 100 µM (inactive)	> 100 µM (inactive)	> 100 µM (inactive)	48 µM (inactive)	81.8 µM	37.4 µM (inactive)	50.6 µM (inactive)	> 100 µM (inactive)	> 100 µM (inactive)	> 100 µM (inactive)		19.2 µM (inactive)		> 100 µM (inactive)
CSc1nc(NC2OCC(OC(C)=O)C(OC(C)=O)C2OC(C)=O)c2c(OC(C)=O)c(C)c(=O)oc2n1 (stereo unspecified)	> 100 µM (inactive)	> 100 µM (inactive)	> 100 µM (inactive)	> 100 µM (inactive)		> 100 µM (inactive)	> 100 µM (inactive)	> 100 µM	> 100 µM (inactive)	> 100 µM (inactive)	> 100 µM (inactive)	> 100 µM (inactive)	> 100 µM (inactive)	> 100 µM (inactive)	> 100 µM (inactive)		> 100 µM (inactive)
